Measured values published in patent EP0242417B1, “Morphinane-skeletoned hydrazone derivatives, process for preparing them, pharmaceutical composition and use” (ALKALOIDA VEGYéSZETI GYáR, priority 1986, dated 1987).

Columns and labels:
[1] = Sensitivity to light of the isolated product
[2] = tested on: opiate receptors; experiment: Competition for tritiated Naloxon specific binding in rat brain membrane preparates; conditions: tritiated Naloxon bond (1 nanomole) taken as 100 %
Experimental: The effect of the 10⁻⁷ and 10⁻⁵ M concentration of the compounds was examined to tritiated Naloxon bond in rat brain membrane preparates. […]
If the inhibition is high, i.e. the value of the specific bond of the labelled Naloxon is low, the compounds bind to the opiate receptors with high affinity.
A comparative data the tritiated Naloxon bond (concentration: 1 nanomole) was taken as 100 % (without excipients).
The membrane preparate was prepared according to the following article: G.W. Pasternak, H.A. Wilson, S.H. Snyder: Molecular Pharmacol. 11 340-51 (1975).
The specific radioactivity of the labelled Naloxon was 72.4 Ci/mmole [G. Töth, M. Kramer, F. Sirokmán, A. Borsodi, A. Rónai: J. Label. Comp. Radiopharm. 19 1021 (1976)].

[3] = Tail Flick test (analgetic activity); format: in vivo; conditions: sc
[4] = Hot plate test (analgetic activity); format: in vivo; conditions: sc
[5] = compared with naloxone; cited from earlier work
[6] = compound concentration 10⁻⁵ mol
[7] = compound concentration 10⁻⁷ mol

## COc1ccc2c3c1O[C@H]1C(=NNc4ccccc4)C=C[C@@]4(O)[C@@H](C2)N(C)CC[C@]314 [14-OH-codeinone phenylhydrazone]
[1]
  sensitivity to light: sensitive to light

## COc1ccc2c3c1O[C@H]1C(=NNc4ccccc4)CC[C@H]4[C@@H](C2)N(C)CC[C@]314 [Dihydrocodeinone phenylhydrazone]
[2]; [6]
  residual tritiated specific bonds of Naloxon: 5±1%
[2]; [7]
  residual tritiated specific bonds of Naloxon: 75±9%
[3]
  Tail Flick ED₅₀: 2.3 mg/kg.sc.
[4]
  Hot plate test ED₅₀: 2.4 mg/kg.sc

## COc1ccc2c3c1O[C@H]1C(=NNC(N)=O)CC[C@H]4[C@@H](C2)N(C)CC[C@]314 [Dihydrocodeinone semicarbazone]
[2]; [6]
  residual tritiated specific bonds of Naloxon: 9±7%
[2]; [7]
  residual tritiated specific bonds of Naloxon: 43±4%
[3]
  Tail Flick ED₅₀: 0.35 mg/kg.sc.
[4]
  Hot plate test ED₅₀: 0.38 mg/kg.sc

## COc1ccc2c3c1O[C@H]1C(=NNC(N)=S)CC[C@H]4[C@@H](C2)N(C)CC[C@]314 [Dihydrocodeinone thiosemicarbazone]
[3]
  Tail Flick ED₅₀: 0.6 mg/kg.sc.
[4]
  Hot plate test ED₅₀: 1.7 mg/kg.sc

## CN1CC[C@]23c4c5ccc(O)c4O[C@H]2C(=NNc2ccc([N+](=O)[O-])cc2[N+](=O)[O-])CC[C@H]3[C@H]1C5 [Dihydromorphinone dinitrophenylhydrazone, Dihydromorphinone-2,4-dinitrophenyl hydrazone]
[2]; [6]
  residual tritiated specific bonds of Naloxon: 0.5±0.7%
[2]; [7]
  residual tritiated specific bonds of Naloxon: 17±2%
[3]
  Tail Flick ED₅₀: 0.18 mg/kg.sc.
[4]
  Hot plate test ED₅₀: 0.27 mg/kg.sc

## CN1CC[C@]23c4c5ccc(O)c4O[C@H]2C(=NNc2ccccc2)CC[C@H]3[C@H]1C5 [Dihydromorphinone phenylhydrazone]
[2]; [6]
  residual tritiated specific bonds of Naloxon: 10±14%
[2]; [7]
  residual tritiated specific bonds of Naloxon: 4±5%

## CN1CC[C@]23c4c5ccc(O)c4O[C@H]2C(=NNC(N)=O)CC[C@H]3[C@H]1C5 [Dihydromorphinone semicarbazone]
[2]; [6]
  residual tritiated specific bonds of Naloxon: 4±6%
[2]; [7]
  residual tritiated specific bonds of Naloxon: 69±13%
[3]
  Tail Flick ED₅₀: 0.13 mg/kg.sc.
[4]
  Hot plate test ED₅₀: 0.085 mg/kg.sc

## CN1CC[C@]23c4c5ccc(O)c4O[C@H]2C(=NNC(N)=S)CC[C@H]3[C@H]1C5 [Dihydromorphinone thiosemicarbazone]
[2]; [6]
  residual tritiated specific bonds of Naloxon: 19±4%
[2]; [7]
  residual tritiated specific bonds of Naloxon: 16±5%

## CN1CC[C@]23c4c5ccc(O)c4O[C@H]2[C@@H](O)C=C[C@H]3[C@H]1C5 [Morphine, reference compound]
[3]
  Tail Flick ED₅₀: 5.0 mg/kg.sc.
[4]
  Hot plate test ED₅₀: 3.6 mg/kg.sc

## COc1ccc2c3c1O[C@H]1C(=NN)C=C[C@@]4(O)[C@@H](C2)N(C)CC[C@]314 [Oxycodeinone hydrazone, 14-OH-codeinone hydrazone]
[2]; [6]
  residual tritiated specific bonds of Naloxon: 13±7%
[2]; [7]
  residual tritiated specific bonds of Naloxon: 92±25%

## COc1ccc2c3c1O[C@H]1C(=NNc4ccccc4)CC[C@@]4(O)[C@@H](C2)N(C)CC[C@]314 [Oxycodone phenylhydrazone, 14-OH-dihydrocodeinone phenylhydrazone]
[3]
  Tail Flick ED₅₀: 1.2 mg/kg.sc.
[4]
  Hot plate test ED₅₀: 0.8 mg/kg.sc

## COc1ccc2c3c1O[C@H]1C(=NNC(N)=O)CC[C@@]4(O)[C@@H](C2)N(C)CC[C@]314 [Oxycodone semicarbazone, 14-OH-dihydrocodeinonesemicarbazone]
[3]
  Tail Flick ED₅₀: 0.45 mg/kg.sc.
[4]
  Hot plate test ED₅₀: 0.58 mg/kg.sc

## CN1CC[C@]23c4c5ccc(O)c4O[C@H]2C(=NNc2ccc([N+](=O)[O-])cc2[N+](=O)[O-])CC[C@@]3(O)[C@H]1C5 [Oxymorphone dinitrophenylhydrazone, 14-OH-dihydromorphinone-2,4-dinitrophenyl hydrazone]
[2]; [6]
  residual tritiated specific bonds of Naloxon: 1±0.3%
[2]; [7]
  residual tritiated specific bonds of Naloxon: 33±1%
[3]
  Tail Flick ED₅₀: 0.27 mg/kg.sc.
[4]
  Hot plate test ED₅₀: 0.37 mg/kg.sc

## CN1CC[C@]23c4c5ccc(O)c4O[C@H]2C(=NNC(N)=O)CC[C@@]3(O)[C@H]1C5 [Oxymorphone semicarbazone, 14-OH-dihydromarphinone semicarbazone]
[3]
  Tail Flick ED₅₀: 0.9 mg/kg.sc.
[4]
  Hot plate test ED₅₀: 0.9 mg/kg.sc

## CN1CC[C@]23c4c5ccc(O)c4O[C@H]2C(=NNC(N)=S)CC[C@@]3(O)[C@H]1C5 [Oxymorphone thiosemicarbazone, 14-OH dihydromorphine thiosemicarbazone]
[2]; [6]
  residual tritiated specific bonds of Naloxon: 0%
[2]; [7]
  residual tritiated specific bonds of Naloxon: 37±9%

## C=CCN1CCC23c4c5ccc(O)c4OC2C(=NNc2ccccc2)CCC3(O)C1C5 (stereo not shown) [naloxone phenylhydrazone]
[5]
  membrane affinity: much weaker membrane affinity than naloxone
